In publication PMC10315211 (Molecular microbiology, 2023):

Molecular target: CpdAEc (N-His-CpdAEc) (Escherichia coli, UniProt P0AEW4)
Format: biochemical
Conditions: 50 mM Tris-HCl pH 8.0, 0.14 M NaCl, 2 mM MgCl2, room temperature

Sequence of CpdAEc (N-His-CpdAEc) (P0AEW4 whole entry): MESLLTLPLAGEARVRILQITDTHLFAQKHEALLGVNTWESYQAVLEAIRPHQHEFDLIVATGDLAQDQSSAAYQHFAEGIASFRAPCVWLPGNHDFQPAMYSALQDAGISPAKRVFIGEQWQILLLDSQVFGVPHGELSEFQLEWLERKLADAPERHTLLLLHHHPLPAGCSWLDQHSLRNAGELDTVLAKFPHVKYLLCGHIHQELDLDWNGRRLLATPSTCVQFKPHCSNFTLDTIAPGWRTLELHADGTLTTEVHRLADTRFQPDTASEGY

C[N+](C)(C)CCOP(=O)([O-])OC[C@H](O)CO [glycerophosphocholine]
choline oxidase / HRP coupled Amplex Red fluorometric assay: both Rv0805 and CpdAEc produced choline and Gly3P from glycerophosphocholine (GPC)
